The source of these data is patent US20180250260A1, “METHODS FOR TREATING CANCER” (BOSTON BIOMEDICAL, INC., priority 2015, published 2018).

The structures appear in SMILES notation.

Assay [1] deals with p-Stat3. The assay can be described thus: Cancer stemness biomarker immunofluorescence in cancer xenograft tumors: p-Stat3. It is filed as in vivo, mouse xenograft. Particulars: alone; cancer xenograft tumor model, FIG. 6. As for the experimental part:
(§1) The effects of 2-acetylnaphtho[2,3-b]furan-4,9-dione, a compound of formula (I), on cancer stem cell markers was examined in cancer xenograft models with and without irinotecan. Human cancer cells were subcutaneously implanted into the right flank of 5-7 weeks old female athymic nude mice. When tumor size reached 200 mm^3, animals were treated with 2-acetylnaphtho[2,3-b]furan-4,9-dione, irinotecan, or a combination of 2-acetylnaphtho[2,3-b]furan-4,9-dione and irinotecan. Tumors were harvested after first dosing.
(§2) The harvested tissues were fixed in 3.7% neutral buffered formaldehyde at 4° C. for overnight. The paraffin was embedded, cut to about 5 microns, and affixed onto positively-charged slides. After being baked and de-paraffinized, the slides with tumor or control tissues were incubated in 10 mM Sodium Citrate (pH 6.0) for 10 minutes. After antigen retrieval, slides were probed with primary antibodies P-STAT3 (rabbit, Cell Signaling, 1:100), 13-Catenine (mouse, Santa Cruz, 1:400) at 4° C. overnight, and then Alexa Fluor fluorescent dyes-conjugated secondary antibodies (1:500, Invitrogen). After mounting, the slides with ProLong mounting medium with DAPI (Invitrogen) were examined under a Zeiss fluorescence microscope with 20× objective, and analyzed with Zen software.

The subject of assay [2] is β-catenin. The assay can be described thus: Cancer stemness biomarker immunofluorescence in cancer xenograft tumors: β-catenin. It is filed as in vivo. The conditions noted are these: alone; cancer xenograft tumor model, FIG. 6. As for the experimental part:
as §1, §2

`CCc1c2c(nc3ccc(OC(=O)N4CCC(N5CCCCC5)CC4)cc13)-c1cc3c(c(=O)n1C2)COC(=O)[C@]3(O)CC` [irinotecan, reference compound]: the “staining for stem cell marker p-Stat3” value in assay [1] is given as “enhanced staining”. The “staining for stem cell marker β-catenin” value in assay [2] was “enhanced staining”.
